The text below walks through data of patent publication US11964943B2, “3,5-diarylidenyl-n-substituted-piperid-4-one-derived inhibitors of Stat3 pathway activity and uses thereof” (priority 2017, dated 2024).

As usually defined, the IC50 is the concentration that inhibits the measured activity by half. Low readings indicate higher potency, high ones lower potency.

For test [1], the system named is HCT116-oxaliplatin resistant spheroids. The test can be described thus: CellTiter-Glo 3D cell viability assay, HCT116-oxaliplatin resistant spheroids. The class given is cell-based. Conditions: 96 h exposure, 3D CellTiter-Glo. On the procedure: (§1) For cell spheroid formation, HCT116-oxaliplatin resistant cells, A2780-cisplatin resistant cells, and HT1080 cells were seeded in Corning® Spheroid opaque-walled 96 well Microplates (ultra-low attachment; Nuclon™ Sphera™, Thermofisher) at densities of 2000 cells/well in 100 μl of cell solution and allowed to grow for 4 days, before any manipulation.
(§2) Spheroid cells were treated by adding 100 μl of 2-fold the desired compound concentration and incubated at 37° C. for 96 h. At the end of drug incubation, both the plates and the CellTitre-Glo® reagent (previously thawn overnight in the fridge) were equilibrated at room temperature for at least 30 min. Subsequently, 100 μl of cell solution were carefully removed from each well, without disrupting the spheroid and equal volume of CellTitre-Glo® reagent was added. Cell lysis was performed by vigorously shaking the plate for 5 min. To stabilize the luminescent signal, the plate was incubated in the dark at RT for another 30 min before luminescence was recorded on a plate reader. The cell viability of treated samples was normalised to the untreated controls.
(§3) The cytotoxicity studies in spheroids were conducted using the CellTiter-Glo® 3D Cell viability assay (Promega) following the instructions of the manufacturer.
(In ATP-based viability assays light output follows the ATP content of the culture.)

The subject of test [2] is DU145 cells. Nature of the test: SRB growth inhibition and combination index with cisplatin, DU145. The class given is cell-based. As to the method: (§4) The affected fractions were calculated from the SRB or MTT assay absorbance values and were registered to derive the respective CI values and isobolograms. A CI value of less than 1 (one) indicates synergy.
(§5) The SRB assay was used to assess cell growth inhibition by IE-8 alone and in combination with cisplatin. […] For combination studies drug treatments were sequential with IE-8 applied first followed by cisplatin for 1 h. […] Absorbance was read at 540 nm and results were normalized to untreated controls. For analysis of GC50 values and statistical significance, non-linear regression analysis with a comparison of fits was performed with the GraphPad Prism 6.0 software.
(§6) Drug Combination studies. Sulforhodamine B (SRB) Cell Growth Inhibition Assay. The SRB assay was used to assess cell growth inhibition by 8 h alone and in combination with cisplatin. […] For combination studies drug treatments were sequential with 8 h applied first followed by cisplatin for 1 h. […] Absorbance was read at 540 nm and results were normalized to untreated controls. For analysis of GC50 values and statistical significance, non-linear regression analysis with a comparison of fits was performed with the GraphPad Prism 6.0 software.

In test [3] the test system is DU145 cells. Nature of the test: Wound healing (scratch) assay. Conditions: 1 μM for 18 h prior to wounding; untreated control closed by 36 h. The class given is cell-based. As to the method:
DU145 cells were seeded in 6-well cell culture plates with Dulbecco's modified Eagle's medium/high glucose containing 10% FBS. After the cells reached 100% confluence, the monolayer was scratched using a […] pipette tip and washed once with PBS, to remove non-adherent cells. […] After drug incubation and wound induction, the medium was replaced with fresh drug-free medium and cells were observed under the microscope at the denoted time points.

Test [4] relates to MDA-MB-435 cancer cell line. Nature of the test: SRB antiproliferative assay, MDA-MB-435. The class given is cell-based, human. For orientation: In SRB staining, fixed cells bind dye roughly in proportion to their protein.
In test [5] the test system is Stat3, Stat1α, Stat5a and Stat5b. Nature of the test: Stat selectivity: immunoblotting and TransAM STAT Family ELISA. Conditions: DU145 cells, 18 h. The class given is cell-based. On the procedure: The Active Motif TransAMX Stat Family ELISA kit was utilized to study the specificity of IE-8 for Stat3, 20 μg of whole cell extract was used and Stat activity was assessed according to the manufacturer's protocol. Briefly, 30 μl of Complete Binding Buffer (provided and supplemented with 2 μl of 1M DTT and 10 μl of Herring sperm DNA per ml of Binding Buffer AM6) was added to each well used. 20 μl of sample (nuclear extract diluted in Complete Lysis Buffer) per well, were used, while Complete Lysis Buffer (provided and supplemented with 1 μl of 1 M DTT and 10 μl of Protease Inhibitor Cocktail per ml of Lysis Buffer AM1) only, was used for blanks. The plate was sealed with the provided adhesive cover and incubated for 1 hour at room temperature, with mild agitation, on a rocking platform. At the end of incubation, the wells were washed 3 times with 200 μl 1× Wash Buffer (provided). 100 μl of one of the diluted Stat antibodies (1:1000 dilution in 1× Antibody binding buffer for the Stat3, Stat1, Stat5A and Stat5B antibodies) were added to all the used wells. […] Absorbance was read on a spectrophotometer immediately thereafter, at 450 nm, with a reference wavelength of 655 nm.
TransAM® STAT Family ELIS Assay. […] 20 μg of whole cell extract was used and STAT activity was assessed according to the manufacturers protocol.
On the technique in general: Immunoblotting shows a protein as a band on a membrane.

In a further test the test system is A549 cells. The test can be described thus: SRB growth inhibition and combination index with cisplatin, A549. The class given is cell-based, human. On the procedure:
as §4, §5, §6

For test [6], the system named is A2780-cisplatin resistant spheroids. Nature of the test: CellTiter-Glo 3D cell viability assay, A2780-cisplatin resistant spheroids. The class given is cell-based. Conditions: 96 h exposure, 3D CellTiter-Glo. As to the method:
as §1
as §2, with “At” for “Spheroid cells were treated by adding 100 μl of 2-fold the desired compound concentration and incubated at 37° C. for 96 h. At”
as §3

Where [7] appears, read: IE-8 18 h then cisplatin 1 h, fixed ratio 1:50.

Entries after “also recorded” stand apart in the source; their conditions may differ. Where only a bound is given, the exact number is not on record here.

As to “3,5-Di(3,4,5-trimethoxybenzylidene)-1-phenylpiperidin-4-one [IE-8]”, the IC50 in test [1] was found to be 8.5 µM; in test [4] (48 h exposure), 0.15 µM. Also, the “combination index (CI) with cisplatin” value in the test on DU145 cells [2] (setting [7]) is on record as more than 1. For the same molecule, the “time for which full wound closure was prevented” value in the test on DU145 cells [3] is “up to 60 h”. The “selectivity for Stat3 over Stat1, Stat5a and Stat5b” value in test [5] is reported as “selective for STAT3 over STAT1”.
Consider `COc1cc(/C=C2\CN(c3ccccc3)C/C(=C\c3cc(OC)c(OC)c(OC)c3)C2=O)cc(OC)c1OC` [IE-8, 3,5-Di(3,4,5-trimethoxybenzylidene)-1-phenylpiperidin-4-one], for which the IC50 was 8.5 µM in test [1]; 0.15 µM in test [4] (Homo sapiens, MDA-MB-435, 48 h exposure); 3.01 ± 0.41 µM in test [6]. Besides, the “combination index (CI) with cisplatin” value in the test with DU145 cells [2] (5 μM IE-8 1 h then cisplatin 1 h, non-fixed ratio) is on record as “below 1”; with A549 cells (10 μM IE-8 1 h then cisplatin 1 h), “below 1”; in the test on A549 cells (setting [7]) it was “below 1”. For the same molecule, the “time for which full wound closure was prevented” value in the test on DU145 cells [3] is “up to 60 h”. Further, the “selectivity for Stat3 over Stat1, Stat5a and Stat5b” value in test [5] is “selectively inhibits pStat3^Tyr705 without inhibiting pStat1^Tyr701 or pStat5^Tyr694; also recorded: selectively inhibit the Stat3-DNA binding activity over that of Stat1α, Stat5a and Stat5b; also recorded: selective for Stat3 over Stat1, Stat5a, and Stat5b”.
